Results: patent publication US7928140B2, “Benzothiazole PI3 kinase modulators for cancer treatment” (Amgen Inc., priority 2007, dated 2011)

Columns and labels:
PI3K α = molecular target: T1, PI3K α (Homo sapiens, UniProt P42336); assay: In vitro PI3 kinase enzyme assay (alpha), ATP loss, bioluminescence; type: biochemical; details: read-out: PI3Kα ATP loss IC50;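 further: purified p110α/p85 heterodimer acting on PtdIns(4,5)P2 at room temperature, remaining ATP read by luminescence, inhibition scaled between compound-free wells with and without enzyme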
T1 construct: Full length p110 subunits of PI3K α, β and δ, N-terminally labeled with polyHis tag; polyHis (N); made in house; host or cells: Sf9 insect cells (baculovirus)
T1 sequence (P42336 whole entry, species assumed): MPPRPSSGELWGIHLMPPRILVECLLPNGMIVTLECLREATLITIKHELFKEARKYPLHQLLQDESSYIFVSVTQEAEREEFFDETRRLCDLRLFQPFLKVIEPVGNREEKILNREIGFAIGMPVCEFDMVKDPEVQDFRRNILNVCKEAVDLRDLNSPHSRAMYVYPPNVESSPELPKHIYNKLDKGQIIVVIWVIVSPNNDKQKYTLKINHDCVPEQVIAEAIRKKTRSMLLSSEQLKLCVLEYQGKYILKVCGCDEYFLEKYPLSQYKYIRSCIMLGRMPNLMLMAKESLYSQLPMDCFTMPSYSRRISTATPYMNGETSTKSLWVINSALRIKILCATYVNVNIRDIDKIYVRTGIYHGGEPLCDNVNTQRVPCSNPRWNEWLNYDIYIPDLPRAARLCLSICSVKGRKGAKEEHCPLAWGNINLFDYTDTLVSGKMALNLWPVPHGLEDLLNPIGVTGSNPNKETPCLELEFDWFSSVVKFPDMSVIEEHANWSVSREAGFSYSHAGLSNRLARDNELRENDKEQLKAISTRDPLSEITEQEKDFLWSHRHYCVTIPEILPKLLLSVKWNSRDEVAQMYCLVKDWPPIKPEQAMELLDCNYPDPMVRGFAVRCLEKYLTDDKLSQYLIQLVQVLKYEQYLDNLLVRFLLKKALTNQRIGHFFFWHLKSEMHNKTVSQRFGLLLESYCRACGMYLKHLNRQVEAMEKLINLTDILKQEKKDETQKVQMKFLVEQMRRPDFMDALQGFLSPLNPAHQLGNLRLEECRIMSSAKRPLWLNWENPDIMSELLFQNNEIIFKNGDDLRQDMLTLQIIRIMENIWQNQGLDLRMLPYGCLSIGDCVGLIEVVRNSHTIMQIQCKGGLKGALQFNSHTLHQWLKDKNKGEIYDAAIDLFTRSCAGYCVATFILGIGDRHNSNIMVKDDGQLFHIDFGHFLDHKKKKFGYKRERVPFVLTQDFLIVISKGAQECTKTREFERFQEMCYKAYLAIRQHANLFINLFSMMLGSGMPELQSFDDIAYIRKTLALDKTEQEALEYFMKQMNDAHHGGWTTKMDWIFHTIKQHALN
T1 sequence (P27986 whole entry partner, species assumed): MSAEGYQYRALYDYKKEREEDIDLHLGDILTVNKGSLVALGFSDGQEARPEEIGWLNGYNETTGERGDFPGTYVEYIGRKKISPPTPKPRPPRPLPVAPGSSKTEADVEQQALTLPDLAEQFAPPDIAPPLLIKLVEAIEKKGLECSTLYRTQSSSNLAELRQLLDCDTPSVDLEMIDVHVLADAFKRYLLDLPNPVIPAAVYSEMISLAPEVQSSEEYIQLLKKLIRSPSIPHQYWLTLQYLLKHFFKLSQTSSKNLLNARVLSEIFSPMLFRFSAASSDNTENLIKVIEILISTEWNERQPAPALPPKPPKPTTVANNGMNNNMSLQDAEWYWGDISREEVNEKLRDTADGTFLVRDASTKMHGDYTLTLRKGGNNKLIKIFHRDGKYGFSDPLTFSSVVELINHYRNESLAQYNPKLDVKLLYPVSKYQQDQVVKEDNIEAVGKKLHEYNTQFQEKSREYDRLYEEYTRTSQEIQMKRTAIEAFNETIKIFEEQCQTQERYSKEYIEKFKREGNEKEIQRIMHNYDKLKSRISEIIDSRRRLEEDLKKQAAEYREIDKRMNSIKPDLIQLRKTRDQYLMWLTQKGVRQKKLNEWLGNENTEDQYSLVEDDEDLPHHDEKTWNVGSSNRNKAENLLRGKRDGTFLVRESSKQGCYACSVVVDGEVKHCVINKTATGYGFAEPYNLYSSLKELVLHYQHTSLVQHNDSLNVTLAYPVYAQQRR

PI3K β = molecular target: T2, PI3K β (Homo sapiens, UniProt P42338); assay: In vitro PI3 kinase enzyme assay (beta), ATP loss, bioluminescence; type: biochemical; details: read-out: PI3Kβ ATP loss IC50;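 further: purified p110β/p85 heterodimer with PtdIns(4,5)P2 as acceptor, incubated at room temperature, leftover ATP read by luminescence, inhibition scaled to compound-free wells with and without enzyme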
T2 construct: Full length p110 subunits of PI3K α, β and δ, N-terminally labeled with polyHis tag; polyHis (N); made in house; host or cells: Sf9 insect cells (baculovirus)
T2 sequence (P42338 whole entry): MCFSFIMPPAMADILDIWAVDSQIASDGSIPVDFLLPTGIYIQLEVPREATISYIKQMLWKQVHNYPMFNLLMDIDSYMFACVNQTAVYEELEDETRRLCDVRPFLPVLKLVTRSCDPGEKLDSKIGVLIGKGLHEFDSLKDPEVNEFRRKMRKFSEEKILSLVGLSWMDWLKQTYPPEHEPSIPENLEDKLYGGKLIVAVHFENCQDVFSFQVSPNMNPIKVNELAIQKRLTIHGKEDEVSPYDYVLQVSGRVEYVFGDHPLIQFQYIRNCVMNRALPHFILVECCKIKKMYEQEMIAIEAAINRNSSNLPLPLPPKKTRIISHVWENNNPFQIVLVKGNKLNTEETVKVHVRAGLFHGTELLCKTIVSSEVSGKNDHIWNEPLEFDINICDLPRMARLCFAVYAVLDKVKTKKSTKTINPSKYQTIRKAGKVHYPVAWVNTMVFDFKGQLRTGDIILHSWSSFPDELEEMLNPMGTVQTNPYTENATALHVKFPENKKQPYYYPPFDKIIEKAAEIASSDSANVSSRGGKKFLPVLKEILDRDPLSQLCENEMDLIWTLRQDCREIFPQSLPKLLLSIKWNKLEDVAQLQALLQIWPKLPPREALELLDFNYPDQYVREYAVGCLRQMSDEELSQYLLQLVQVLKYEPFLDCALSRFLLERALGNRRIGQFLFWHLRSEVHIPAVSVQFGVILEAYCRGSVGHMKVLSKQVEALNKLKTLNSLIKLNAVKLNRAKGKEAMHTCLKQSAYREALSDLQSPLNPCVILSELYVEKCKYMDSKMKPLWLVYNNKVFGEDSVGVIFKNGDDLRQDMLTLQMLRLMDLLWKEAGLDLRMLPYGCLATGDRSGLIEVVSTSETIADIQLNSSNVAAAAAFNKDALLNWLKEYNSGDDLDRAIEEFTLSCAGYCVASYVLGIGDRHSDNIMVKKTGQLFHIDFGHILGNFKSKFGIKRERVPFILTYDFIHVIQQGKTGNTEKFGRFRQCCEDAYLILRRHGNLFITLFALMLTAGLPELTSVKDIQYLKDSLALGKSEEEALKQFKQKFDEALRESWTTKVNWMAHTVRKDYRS
T2 sequence (P27986 whole entry partner): as the sequence (P27986 whole entry partner, species assumed) above

Row | Structure (SMILES) | IC50 (PI3K α) [nM] | IC50 (PI3K β) [nM]
1 | Nc1nc2ccc(-c3cccc(NS(=O)(=O)c4ccccc4F)n3)cc2s1 [Example 72, N-(6-(2-amino-1,3-benzothiazol-6-yl)-2-pyridinyl)-2-fluorobenzenesulfonamide] | 2270 | 1600
2 | COc1ccc(-c2cccc3nc(NC(C)=O)sc23)cc1F [Example 94] | 998 | 24800
3 | COc1ccc(-c2cccc3nc(NC(C)=O)sc23)cc1 [Example 95, N-(7-(4-Methoxyphenyl)benzo[d]thiazol-2-yl)acetamide] | 6540 | > 40000
4 | COc1cccc(-c2cccc3nc(NC(C)=O)sc23)c1 [Example 96, N-(7-(3-methoxyphenyl)-1,3-benzothiazol-2-yl)acetamide] | 1680 | > 40000
5 | CC(=O)Nc1nc2ccc(-c3csc(S(=O)(=O)c4ccc(F)cc4)n3)cc2s1 [Example 97, N-(6-(2-(4-Fluorophenylsulfonyl)thiazol-4-yl)benzo[d]thiazol-2-yl)acetamide] | 17300 | 28000
6 | CC(=O)Nc1nc2ccc(-c3cccc4sc(=O)[nH]c34)cc2s1 [Example 98, N-(6-(2-oxo-2,3-Dihydrobenzo[d]thiazol-4-yl)benzo[d]thiazol-2-yl)acetamide] | 3140 | 10000
7 | CC(=O)Nc1nc2ccc(-c3cc(C)nc(N)n3)cc2s1 [Example 101, N-(6-(2-Amino-6-methylpyrimidin-4-yl)benzo[d]thiazol-2-yl)acetamide] | 4190 | 9990
8 | CC(=O)Nc1nc2ccc(-c3ccnc(OCCCO)n3)cc2s1 [Example 102, N-(6-(2-(3-hydroxypropoxy)-4-pyrimidinyl)-1,3-benzothiazol-2-yl)acetamide] | 664 | > 40000
9 | CC(=O)Nc1nc2ccc(-c3ccnc(OCCCCO)n3)cc2s1 [Example 103, N-(6-(2-(4-hydroxybutoxy)-4-pyrimidinyl)-1,3-benzothiazol-2-yl)acetamide] | 727 | > 40000
10 | CC(=O)Nc1nc2ccc(-c3ccnc(OCCO)n3)cc2s1 [Example 104, N-(6-(2-(2-hydroxyethoxy)-4-pyrimidinyl)-1,3-benzothiazol-2-yl)acetamide] | 540 | > 40000
11 | CC(=O)Nc1nc2ccc(-c3ccnc(Sc4ccccc4C(C)C)n3)cc2s1 [Example 154, N-(6-(2-((2-(1-methylethyl)phenyl)sulfanyl)-4-pyrimidinyl)-1,3-benzothiazol-2-yl)acetamide] | 376 | 1210
12 | CC(=O)Nc1nc2ccc(-c3cnc4c(c3)NC(C)(C)N4C)cc2s1 [Example 157, N-(6-(2,2,3-trimethyl-2,3-dihydro-1H-imidazo[4,5-b]pyridin-6-yl)benzo[d]thiazol-2-yl)acetamide] | 664 | > 40000
13 | COc1ccc(OC)c(Sc2nccc(-c3ccc4nc(NC(C)=O)sc4c3)n2)c1 [Example 158, N-(6-(2-((2,5-dimethoxyphenyl)sulfanyl)-4-pyrimidinyl)-1,3-benzothiazol-2-yl)acetamide] | 831 | 426
14 | CC(=O)Nc1nc2ccc(-c3cnc(OCCN(C)C)c(NC(C)C)c3)cc2s1 [Example 159, N-(6-(6-(2-(dimethylamino)ethoxy)-5-(isopropylamino)pyridin-3-yl)benzo[d]thiazol-2-yl)acetamide] | 914 | 3740
15 | CC(=O)Nc1nc2ccc(-c3ccnc(N4CCOCC4)n3)cc2s1 [Example 160, N-(6-(2-(4-morpholinyl)-4-pyrimidinyl)-1,3-benzothiazol-2-yl)acetamide] | 2740 | 18900
16 | CC(C)(C)OC(=O)Nc1nc2ccc(-c3nnc(NS(=O)(=O)c4ccc(F)cc4)o3)cc2s1 [Example 167, tert-Butyl 6-(5-(4-fluorophenylsulfonamido)-1,3,4-oxadiazol-2-yl)benzo[d]thiazol-2-ylcarbamate] | 663 | 5800
17 | Nc1nc2ccc(-c3nnc(NS(=O)(=O)c4ccc(F)cc4)o3)cc2s1 [Example 168, N-(5-(2-aminobenzo[d]thiazol-6-yl)-1,3,4-oxadiazol-2-yl)-4-fluorobenzenesulfonamide] | 665 | 816
18 | CC(C)(C)OC(=O)Nc1nc2ccc(-c3nnc(NCc4ccccc4)o3)cc2s1 [Example 169, tert-Butyl 6-(5-(benzylamino)-1,3,4-oxadiazol-2-yl)benzo[d]thiazol-2-ylcarbamate] | 4240 | 2690
19 | CC(C)(C)OC(=O)Nc1nc2ccc(-c3nnc(N(Cc4ccccc4)S(C)(=O)=O)o3)cc2s1 [Example 170, tert-Butyl 6-(5-(N-benzylmethan-9-ylsulfonamido)-1,3,4-oxadiazol-2-yl)benzo[d]thiazol-2-ylcarbamate] | 3910 | 4760

Stronger by IC50 (PI3K α), values ahead:

Row | IC50 (PI3K α) [nM] | IC50 (PI3K β) [nM] | Structure (SMILES)
20 | 354 | 404 | CC(=O)Nc1nc2ccc(-c3ccnc(N(C)S(=O)(=O)c4ccc5ncccc5c4)n3)cc2s1 [Example 204, N-(6-(2-(N-methylquinoline-6-sulfonamido)pyrimidin-4-yl)benzo[d]thiazol-2-yl)acetamide]
21 | 324 | 930 | CC(=O)Nc1nc2ccc(-c3ccnc(N(C)S(=O)(=O)c4ccc(F)cc4)n3)cc2s1 [Example 203, N-(6-(2-(4-fluoro-N-methylphenylsulfonamido)pyrimidin-4-yl)benzo[d]thiazol-2-yl)acetamide]
22 | 319 | 10200 | CC(=O)Nc1ccc(S(=O)(=O)Nc2nccc(-c3ccc4nc(NC(C)=O)sc4c3)n2)cc1 [Example 86, N-(4-((4-(2-(acetylamino)-1,3-benzothiazol-6-yl)-2-pyrimidinyl)sulfamoyl)phenyl)acetamide]
23 | 288 | > 40000 | CC(=O)Nc1nc2ccc(-c3cccc4[nH]ncc34)cc2s1 [Example 99, N-(6-(1H-Indazol-4-yl)benzo[d]thiazol-2-yl)acetamide]
24 | 284 | 1840 | CC(=O)Nc1nc2ccc(-c3cnc(OCCCN(C)C)c(NC(C)C)c3)cc2s1 [Example 153, N-(6-(6-(3-(dimethylamino)propoxy)-5-((1-methylethyl)amino)-3-pyridinyl)-1,3-benzothiazol-2-yl)acetamide]
25 | 275 | 864 | CNc1ncc(-c2ccc3nc(NC(C)=O)sc3c2)cc1N [Example 152, N-(6-(5-amino-6-(methylamino)pyridin-3-yl)benzo[d]thiazol-2-yl)acetamide]
26 | 196 | 170 | Cc1ccc(S(=O)(=O)Nc2nnc(-c3ccc4nc(N)sc4c3)o2)cc1 [Example 165, N-(5-(2-Aminobenzo[d]thiazol-6-yl)-1,3,4-oxadiazol-2-yl)-4-methylbenzenesulfonamide]
27 | 186 | 387 | CC(=O)Nc1nc2ccc(-c3ccnc(Sc4cc(C)cc(C)c4)n3)cc2s1 [Example 149, N-(6-(2-((3,5-dimethylphenyl)sulfanyl)-4-pyrimidinyl)-1,3-benzothiazol-2-yl)acetamide]
28 | 153 | 7190 | COc1ccc(S(=O)(=O)Nc2nccc(-c3ccc4nc(NC(C)=O)sc4c3)n2)cc1OC [Example 87, N-(6-(2-(((3,4-dimethoxyphenyl)sulfonyl)amino)-4-pyrimidinyl)-1,3-benzothiazol-2-yl)acetamide]
29 | 126 | 221 | CC(=O)Nc1nc2ccc(-c3ccnc(N(C)S(=O)(=O)c4cccc5ccccc45)n3)cc2s1 [Example 207, N-(6-(2-(N-methylnaphthalene-1-sulfonamido)pyrimidin-4-yl)benzo[d]thiazol-2-yl)acetamide]
30 | 111 | > 40000 | CC(=O)Nc1nc2ccc(-c3cnc(C)c(N)c3)cc2s1 [Example 142, N-(6-(5-amino-6-methyl-3-pyridinyl)-1,3-benzothiazol-2-yl)acetamide]
31 | 83.6 | 134 | CC(=O)Nc1nc2ccc(-c3ccnc(Sc4cccc(Cl)c4)n3)cc2s1 [Example 140, N-(6-(2-((3-chlorophenyl)sulfanyl)-4-pyrimidinyl)-1,3-benzothiazol-2-yl)acetamide]
32 | 80.7 | 1050 | CC(=O)Nc1nc2ccc(-c3ccnc(Sc4ccc(Br)cc4)n3)cc2s1 [Example 139, N-(6-(2-((4-bromophenyl)sulfanyl)-4-pyrimidinyl)-1,3-benzothiazol-2-yl)acetamide]
33 | 69.9 | 2880 | CC(=O)Nc1nc2ccc(-c3ccnc(Sc4ccc(Cl)cc4)n3)cc2s1 [Example 138, N-(6-(2-((4-chlorophenyl)sulfanyl)-4-pyrimidinyl)-1,3-benzothiazol-2-yl)acetamide]
34 | 60.6 | 849 | CC(=O)Nc1nc2ccc(-c3ccnc(NS(=O)(=O)c4cccnc4)n3)cc2s1 [Example 79, N-(6-(2-(pyridine-5-sulfonamido)pyrimidin-4-yl)benzo[d]thiazol-2-yl)acetamide]
35 | 33.9 | 522 | CC(=O)Nc1nc2ccc(-c3ccnc(Sc4ccc(C)c(C)c4)n3)cc2s1 [Example 128, N-(6-(2-((3,4-dimethylphenyl)sulfanyl)-4-pyrimidinyl)-1,3-benzothiazol-2-yl)acetamide]
36 | 23.5 | 537 | CC(=O)Nc1nc2ccc(-c3ccnc(Sc4cc(C)ccc4C)n3)cc2s1 [Example 123, N-(6-(2-((2,5-dimethylphenyl)sulfanyl)-4-pyrimidinyl)-1,3-benzothiazol-2-yl)acetamide]
37 | 19.6 | 260 | CC(=O)Nc1nc2ccc(-c3ccnc(Sc4ccc(C)cc4C)n3)cc2s1 [Example 122, N-(6-(2-((2,4-dimethylphenyl)sulfanyl)-4-pyrimidinyl)-1,3-benzothiazol-2-yl)acetamide]
38 | 17.8 | 322 | CC(=O)Nc1nc2ccc(-c3nnc(NS(=O)(=O)c4ccc(F)cc4)o3)cc2s1 [Example 164, N-(6-(5-(4-Fluorophenylsulfonamido)-1,3,4-oxadiazol-2-yl)benzo[d]thiazol-2-yl)acetamide]
